From patent publication US9695155B2, “Herbicidal substituted pyrimidinyloxy benzene compounds” (E. I. DU PONT DE NEMOURS AND COMPANY, priority 2013, dated 2017)

Experiments:
morningglory [1] = assay: Test A preemergence; type: in vivo, Ipomoea spp.; conditions: for Morningglory plant response rating (0 to 100 scale): 125 g ai/ha
In short: (§1)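 Greenhouse pot test, loam/sand soil. Formulation: non-phytotoxic solvent mix plus surfactant. Pre: directed spray onto soil after sowing. Post: plants at 1–2 leaf, 2–10 cm. Rated visually vs untreated controls at ~10 d, 0 (no effect) to 100 (complete control).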

large (Lg) crabgrass [2] = assay: Test A preemergence; type: in vivo, Digitaria sanguinalis; conditions: for Crabgrass, Large plant response rating (0 to 100 scale): 125 g ai/ha; for Crabgrass, Large plant response rating: 500 g ai/ha, 0 to 100 scale where 0 is no effect and 100 is complete control
In short: as §1

morningglory [3] = assay: Test A postemergence; type: in vivo, Ipomoea spp.
In short: as §1

barnyardgrass [4] = assay: Test A preemergence; type: in vivo, Echinochloa crus-galli; conditions: for Barnyardgrass plant response rating (0 to 100 scale, 0 is no effect, 100 is complete control): 125 g ai/ha; for Barnyardgrass plant response rating: 500 g ai/ha, 0 to 100 scale where 0 is no effect and 100 is complete control
In short: as §1

velvetleaf [5] = assay: Test A postemergence; type: in vivo, Abutilon theophrasti
In short: as §1

wheat [6] = assay: Test A preemergence; type: in vivo, Triticum aestivum; conditions: for Wheat plant response rating (0 to 100 scale): 125 g ai/ha
In short: as §1

rice = assay: Test B flooded paddy test; type: in vivo, Oryza sativa; conditions: Flood, 250 g ai/ha; 0 to 100 scale where 0 is no effect and 100 is complete control
In short: (§2)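 Post-emergence paddy-water application at the 2-leaf stage, with 3 cm flood kept for the whole test. Response was judged visually relative to controls after 13 to 15 greenhouse days, 0 indicating no effect and 100 complete control.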

wheat [7] = assay: Test A postemergence; type: in vivo, Triticum aestivum
In short: as §1

sedge, umbrella = assay: Test B flooded paddy test; type: in vivo, Cyperus difformis; conditions: Flood, 250 g ai/ha; 0 to 100 scale where 0 is no effect and 100 is complete control
In short: as §2

giant foxtail [8] = assay: Test A preemergence; type: in vivo, Setaria faberii; conditions: for Foxtail, Giant plant response rating (0 to 100 scale): 125 g ai/ha
In short: as §1

corn [9] = assay: Test A postemergence; type: in vivo, Zea mays
In short: as §1

large (Lg) crabgrass [10] = assay: Test A postemergence; type: in vivo, Digitaria sanguinalis
In short: as §1

velvetleaf [11] = assay: Test A preemergence; type: in vivo, Abutilon theophrasti; conditions: for Velvetleaf plant response rating (0 to 100 scale): 125 g ai/ha
In short: as §1

corn [12] = assay: Test A preemergence; type: in vivo, Zea mays; conditions: for Corn plant response rating (0 to 100 scale): 125 g ai/ha; for Corn plant response rating: 500 g ai/ha, 0 to 100 scale where 0 is no effect and 100 is complete control
In short: as §1

barnyardgrass [13] = assay: Test B flooded paddy test; type: in vivo, Echinochloa crus-galli; conditions: Flood, 250 g ai/ha; 0 to 100 scale where 0 is no effect and 100 is complete control
In short: as §2

pigweed [14] = assay: Test A postemergence; type: in vivo, Amaranthus retroflexus
In short: as §1

Heteranthera limosa = assay: Test B flooded paddy test; type: in vivo; conditions: Flood, 250 g ai/ha; 0 to 100 scale where 0 is no effect and 100 is complete control
In short: as §2

barnyardgrass [15] = assay: Test A postemergence; type: in vivo, Echinochloa crus-galli
In short: as §1

giant foxtail [16] = assay: Test A postemergence; type: in vivo, Setaria faberii
In short: as §1

pigweed [17] = assay: Test A preemergence; type: in vivo, Amaranthus retroflexus; conditions: for Pigweed plant response rating (0 to 100 scale): 125 g ai/ha
In short: as §1

[18] = 1000 g ai/ha, 0 to 100 scale, 0 no effect, 100 complete control, approx. 10 days
[19] = 1000 g ai/ha, 0 to 100 scale, 0 no effect, 100 complete control
[20] = 500 g ai/ha, 0 to 100 scale where 0 is no effect and 100 is complete control
[21] = 125 g ai/ha, 0 to 100 scale where 0 is no effect and 100 is complete control
[22] = 125 g ai/ha, 0 to 100 scale, 0 no effect, 100 complete control

C=C(C)c1cn(-c2c(Br)cccc2Oc2ncc(Cl)cn2)nn1 [Compound 114]
Morningglory plant response rating (morningglory [1]; [18]): 10
Plant response rating, Crabgrass, Large (large (Lg) crabgrass [2]; [19]): 100
Plant response rating, Morningglory (morningglory [3]; [19]): 80
Plant response rating, Barnyardgrass (barnyardgrass [4]; [19]): 90
Plant response rating, Velvetleaf (velvetleaf [5]; [19]): 100
Wheat plant response rating (wheat [6]; [18]): 40
Plant response rating, Rice (rice): 0
Plant response rating, Wheat (wheat [7]; [19]): 60
Plant response rating, Sedge, Umbrella (sedge, umbrella): 30
Foxtail, Giant plant response rating (giant foxtail [8]; [18]): 100
Plant response rating, Corn (corn [9]; [19]): 70
Plant response rating, Crabgrass, Large (large (Lg) crabgrass [10]; [19]): 90
Velvetleaf plant response rating (velvetleaf [11]; [18]): 100
Plant response rating, Corn (corn [12]; [19]): 20
Plant response rating, Barnyardgrass (barnyardgrass [13]): 0
Plant response rating, Pigweed (pigweed [14]; [19]): 100
Plant response rating, Ducksalad (Heteranthera limosa): 50
Plant response rating, Barnyardgrass (barnyardgrass [15]; [19]): 100
Plant response rating, Foxtail, Giant (giant foxtail [16]; [19]): 90
Pigweed plant response rating (pigweed [17]; [18]): 100

N#Cc1cnc(Oc2ccccc2-n2cccn2)nc1 [Compound 226]
Morningglory plant response rating (0 to 100 scale) (morningglory [1]): 0
Morningglory plant response rating (morningglory [1]; [20]): 0
Crabgrass, Large plant response rating (0 to 100 scale) (large (Lg) crabgrass [2]): 0
Crabgrass, Large plant response rating (large (Lg) crabgrass [2]): 0
Morningglory plant response rating (morningglory [3]; [21]): 0
Plant response rating, Morningglory (morningglory [3]; [20]): 0
Barnyardgrass plant response rating (0 to 100 scale, 0 is no effect, 100 is complete control) (barnyardgrass [4]): 0
Barnyardgrass plant response rating (barnyardgrass [4]): 0
Velvetleaf plant response rating (velvetleaf [5]; [21]): 0
Plant response rating, Velvetleaf (velvetleaf [5]; [20]): 10
Wheat plant response rating (0 to 100 scale) (wheat [6]): 0
Wheat plant response rating (wheat [6]; [20]): 0
Plant response rating, Rice (rice): 0
Wheat plant response rating (wheat [7]; [21]): 0
Plant response rating, Wheat (wheat [7]; [20]): 0
Plant response rating, Sedge, Umbrella (sedge, umbrella): 0
Foxtail, Giant plant response rating (0 to 100 scale) (giant foxtail [8]): 0
Foxtail, Giant plant response rating (giant foxtail [8]; [20]): 0
Corn plant response rating (corn [9]; [21]): 0
Plant response rating, Corn (corn [9]; [20]): 0
Crabgrass, Large plant response rating (large (Lg) crabgrass [10]; [21]): 0
Plant response rating, Crabgrass, Large (large (Lg) crabgrass [10]; [20]): 0
Velvetleaf plant response rating (0 to 100 scale) (velvetleaf [11]): 0
Velvetleaf plant response rating (velvetleaf [11]; [20]): 0
Corn plant response rating (0 to 100 scale) (corn [12]): 0
Corn plant response rating (corn [12]): 0
Plant response rating, Barnyardgrass (barnyardgrass [13]): 0
Pigweed plant response rating (pigweed [14]; [21]): 0
Plant response rating, Pigweed (pigweed [14]; [20]): 10
Plant response rating, Ducksalad (Heteranthera limosa): 0
Barnyardgrass plant response rating (barnyardgrass [15]; [21]): 0
Plant response rating, Barnyardgrass (barnyardgrass [15]; [20]): 0
Foxtail, Giant plant response rating (giant foxtail [16]; [21]): 0
Plant response rating, Foxtail, Giant (giant foxtail [16]; [20]): 0
Pigweed plant response rating (0 to 100 scale) (pigweed [17]): 0
Pigweed plant response rating (pigweed [17]; [20]): 0

NN=Cc1cccc(Oc2ncc(Cl)cn2)c1-n1cc(Cl)cn1 [Compound 295]
Morningglory plant response rating (0 to 100 scale) (morningglory [1]): 0
Morningglory plant response rating (morningglory [1]; [20]): 0
Crabgrass, Large plant response rating (0 to 100 scale) (large (Lg) crabgrass [2]): 0
Crabgrass, Large plant response rating (large (Lg) crabgrass [2]): 0
Plant response rating, Morningglory (morningglory [3]; [22]): 40
Plant response rating, Morningglory (morningglory [3]; [20]): 40
Barnyardgrass plant response rating (0 to 100 scale, 0 is no effect, 100 is complete control) (barnyardgrass [4]): 0
Barnyardgrass plant response rating (barnyardgrass [4]): 0
Plant response rating, Velvetleaf (velvetleaf [5]; [22]): 30
Plant response rating, Velvetleaf (velvetleaf [5]; [20]): 30
Wheat plant response rating (0 to 100 scale) (wheat [6]): 0
Wheat plant response rating (wheat [6]; [20]): 0
Plant response rating, Rice (rice): 0
Plant response rating, Wheat (wheat [7]; [22]): 0
Plant response rating, Wheat (wheat [7]; [20]): 0
Plant response rating, Sedge, Umbrella (sedge, umbrella): 0
Foxtail, Giant plant response rating (0 to 100 scale) (giant foxtail [8]): 0
Foxtail, Giant plant response rating (giant foxtail [8]; [20]): 0
Plant response rating, Corn (corn [9]; [22]): 0
Plant response rating, Corn (corn [9]; [20]): 0
Plant response rating, Crabgrass, Large (large (Lg) crabgrass [10]; [22]): 0
Plant response rating, Crabgrass, Large (large (Lg) crabgrass [10]; [20]): 0
Velvetleaf plant response rating (0 to 100 scale) (velvetleaf [11]): 0
Velvetleaf plant response rating (velvetleaf [11]; [20]): 0
Corn plant response rating (0 to 100 scale) (corn [12]): 0
Corn plant response rating (corn [12]): 0
Plant response rating, Barnyardgrass (barnyardgrass [13]): 0
Plant response rating, Pigweed (pigweed [14]; [22]): 40
Plant response rating, Pigweed (pigweed [14]; [20]): 70
Plant response rating, Ducksalad (Heteranthera limosa): 0
Plant response rating, Barnyardgrass (barnyardgrass [15]; [22]): 0
Plant response rating, Barnyardgrass (barnyardgrass [15]; [20]): 0
Plant response rating, Foxtail, Giant (giant foxtail [16]; [22]): 0
Plant response rating, Foxtail, Giant (giant foxtail [16]; [20]): 0
Pigweed plant response rating (0 to 100 scale) (pigweed [17]): 20
Pigweed plant response rating (pigweed [17]; [20]): 60
